Assay results taken from patent US6979747B2, “Antioxidants, preparation processes and their uses” (Centre National de la Recherche Scientifique (CNRS), priority 1999, dated 2005).

Columns and labels:
GSH = assay: Intracellular GSH in MDMs stimulated with LPS and IFN-γ; type: cell-based, human; conditions: MDMs stimulated with LPS (1 μg/ml) and IFN-γ (100 IU/ml)
Description: The intracellular GSH was assayed by means of the assay kit sold by Cayman. This method for assaying glutathione is an adaptation of that described by O. W. Griffith et al. (1980). Tumor necrosis factor (TNF-α), like the oxygen-comprising or nitrogen-comprising radical components, plays a major role in the apoptotic processes associated with infection the HIV. Furthermore, the radical components can promote the synthesis of this proinflammatory cytokine. For this reason, the effects of I-152 in decreasing the synthesis of TNF-α were thus looked for in MDMs stimulated by a bacterial lipopolysaccharide and interferon (IFN-γ).

HIV-1/Ba-L = assay: Combination of I-152 with AZT in MDMs infected with HIV-1/Ba-L (Chou combination index); type: cell-based; conditions: I-152 combined with AZT
Description: Viral replication was measured by assaying the reverse transcriptase activity in culture supernatants using the RetroSys kit from Innovagen, following the recommendations of the company.
The compound I-152 and its derivatives are prepared extemporaneously by being dissolved in dimethyl sulfoxide (DMSO) at the concentration of 100 mM. They are subsequently stored at −20° C. after having been diluted 10 fold in phosphate buffer (PBS).
The pro-GSH compounds of the “I-152 family” are preferably administered as adjuvants therapeutic for current antiretrovirals. The inventors have thus attempted to measure in vitro the effects of I-152 with respect to the anti-HIV effectiveness of these molecules. This study was carried out using macrophages derived from human blood monocytes infected by the HIV-1/Ba-L strain and according to the methodology described by J. and T C. Chou for quantifying the synergistic effects, additive or antagonistic, between two molecules.

HIV provirus = assay: Quantification of proviral DNAs by PCR (integration of the provirus within the cell genome); type: cell-based; conditions: PCR of proviral DNA
Description: I-152 is composed of MEA and NAC, which are capable of interacting with the early phases of the biological cycle of HIV. It is therefore capable of decreasing the integration of the provirus into the cell genome. In order to measure these effects, the proviral DNAs were quantified by PCR. The cells were lysed using 1 ml of the following lysis solution: 10 mM Tris HCl pH 8; 100 mM of EDTA pH 8; 0.5% of sodium dodecyl sulfate (SDS); 20 μg/ml of DNAse-free bovine pancreatic RNAse. 200 μg/ml of proteinase K are subsequently added to this suspension. The DNAs were subsequently extracted using 1 ml of an ice-cold saturated phenol solution and 1 ml of a […] solution.
The viral DNAs were then amplified by means of specific primers of the gag gene (SK01/SK39) and of a standard range of the 8E5 line, a chronically infected line, the cells of which carry a proviral copy. The β-globin gene was used as reporter gene in order to make sure of the quality of the DNA extraction.

[1] = tested on: total glutathione (GSH+GSSG); assay: Total intracellular glutathione in quiescent PBMCs; type: cell-based, human

## CC(=O)N[C@@H](CS)C(=O)NCCSC(C)=O [I-152, N-(N-acetyl-L-cysteinyl)-S-acetylcysteamine]
GSH
  concentration of GSH (in words): increases the concentration of GSH
HIV-1/Ba-L
  combination index (CI): less than 1
HIV provirus
  integration of the provirus (in words): inhibits the integration of the provirus
PBLs
  cytotoxicity (in words): not cytotoxic
[1]; from concentrations supplementing the culture medium giving equivalent glutathione
  times more active than NAC: 120 times
[1]; quiescent PBMCs, 250 μM
  intracellular glutathione at high concentration (in words): decrease
[1]; quiescent PBMCs, 24 h treatment
  effect on intracellular level of glutathione (in words): increases the intracellular level of glutathione
[1]; quiescent PBMCs, dose 125 μM
  intracellular concentration of total glutathione: 2.64 ± 0.13 µM
